Reference: publication PMC4979471 (Cell Death Discovery, 2015)
Like-named read-outs stand apart in the source and are kept apart here.

Columns and labels:
Test in all cases: Kinase selectivity, P33-radiolabeled assay
Assay type in all cases: biochemical
Conditions in all cases: 10 μM ATP
[1] = target: T1, FAK/PTK2 (Homo sapiens, UniProt Q05397)
T1 construct: purchased Reaction Biology Corp
Outline: (§1)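 ATP at 10 μM; test article at 10 μM, single point, two replicates. Output is activity as % of DMSO.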

[2] = target: T2, PAK3 (Homo sapiens, UniProt O75914)
T2 construct: purchased Reaction Biology Corp
Outline: as §1

[3] = target: T3, IRR/INSRR (Homo sapiens, UniProt P14616)
T3 construct: purchased Reaction Biology Corp
T3 sequence (P14616 27-1297): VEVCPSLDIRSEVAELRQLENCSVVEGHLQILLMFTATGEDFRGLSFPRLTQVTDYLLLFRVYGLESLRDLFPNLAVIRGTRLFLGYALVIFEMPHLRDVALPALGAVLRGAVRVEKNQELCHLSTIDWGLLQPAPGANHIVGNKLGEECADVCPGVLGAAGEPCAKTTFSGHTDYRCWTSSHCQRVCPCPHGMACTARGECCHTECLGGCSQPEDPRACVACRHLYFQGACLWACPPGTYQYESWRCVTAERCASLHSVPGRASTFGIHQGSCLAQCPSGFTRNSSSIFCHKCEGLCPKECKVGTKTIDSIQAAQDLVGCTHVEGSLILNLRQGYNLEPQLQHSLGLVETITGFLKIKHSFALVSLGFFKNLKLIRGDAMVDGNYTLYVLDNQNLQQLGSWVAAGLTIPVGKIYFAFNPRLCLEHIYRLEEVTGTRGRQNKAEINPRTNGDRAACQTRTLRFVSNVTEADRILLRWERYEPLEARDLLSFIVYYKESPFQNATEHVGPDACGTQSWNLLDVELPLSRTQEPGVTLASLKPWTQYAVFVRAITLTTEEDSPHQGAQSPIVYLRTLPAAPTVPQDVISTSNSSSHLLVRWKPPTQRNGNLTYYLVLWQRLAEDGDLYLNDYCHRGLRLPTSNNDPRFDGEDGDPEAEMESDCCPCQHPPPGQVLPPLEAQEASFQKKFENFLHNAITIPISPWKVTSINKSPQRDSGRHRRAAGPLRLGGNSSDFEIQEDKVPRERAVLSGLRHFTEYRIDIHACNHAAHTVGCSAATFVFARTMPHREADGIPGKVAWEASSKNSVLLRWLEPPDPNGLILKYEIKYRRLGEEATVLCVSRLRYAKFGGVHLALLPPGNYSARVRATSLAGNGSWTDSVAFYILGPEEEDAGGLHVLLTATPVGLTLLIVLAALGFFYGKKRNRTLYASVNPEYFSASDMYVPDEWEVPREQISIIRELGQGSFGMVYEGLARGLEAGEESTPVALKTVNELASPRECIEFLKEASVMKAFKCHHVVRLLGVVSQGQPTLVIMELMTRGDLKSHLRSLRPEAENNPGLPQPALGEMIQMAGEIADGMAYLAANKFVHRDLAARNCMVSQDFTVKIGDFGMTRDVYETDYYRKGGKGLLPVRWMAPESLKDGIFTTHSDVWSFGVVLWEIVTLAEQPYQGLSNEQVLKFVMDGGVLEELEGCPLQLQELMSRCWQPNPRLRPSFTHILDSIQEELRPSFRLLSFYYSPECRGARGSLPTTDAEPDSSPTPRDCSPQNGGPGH
Outline: as §1

[4] = target: T4, MNK1 (Homo sapiens, UniProt Q9BUB5)
T4 construct: purchased Reaction Biology Corp
T4 sequence (Q9BUB5 whole entry): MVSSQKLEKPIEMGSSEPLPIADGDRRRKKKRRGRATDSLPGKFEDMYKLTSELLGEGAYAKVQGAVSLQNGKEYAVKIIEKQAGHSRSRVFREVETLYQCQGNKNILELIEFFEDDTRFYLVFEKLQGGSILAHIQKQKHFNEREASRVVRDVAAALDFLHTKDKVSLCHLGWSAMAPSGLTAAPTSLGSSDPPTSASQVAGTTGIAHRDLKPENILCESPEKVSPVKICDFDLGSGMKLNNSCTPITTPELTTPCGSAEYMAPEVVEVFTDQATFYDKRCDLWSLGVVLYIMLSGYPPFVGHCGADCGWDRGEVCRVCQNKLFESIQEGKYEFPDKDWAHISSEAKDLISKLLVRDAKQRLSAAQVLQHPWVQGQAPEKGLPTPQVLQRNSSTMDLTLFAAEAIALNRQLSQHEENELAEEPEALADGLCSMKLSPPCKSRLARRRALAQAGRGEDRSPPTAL
Outline: as §1

[5] = target: T5, TRKA (Homo sapiens, UniProt P04629)
T5 construct: purchased Reaction Biology Corp
T5 sequence (P04629 33-796): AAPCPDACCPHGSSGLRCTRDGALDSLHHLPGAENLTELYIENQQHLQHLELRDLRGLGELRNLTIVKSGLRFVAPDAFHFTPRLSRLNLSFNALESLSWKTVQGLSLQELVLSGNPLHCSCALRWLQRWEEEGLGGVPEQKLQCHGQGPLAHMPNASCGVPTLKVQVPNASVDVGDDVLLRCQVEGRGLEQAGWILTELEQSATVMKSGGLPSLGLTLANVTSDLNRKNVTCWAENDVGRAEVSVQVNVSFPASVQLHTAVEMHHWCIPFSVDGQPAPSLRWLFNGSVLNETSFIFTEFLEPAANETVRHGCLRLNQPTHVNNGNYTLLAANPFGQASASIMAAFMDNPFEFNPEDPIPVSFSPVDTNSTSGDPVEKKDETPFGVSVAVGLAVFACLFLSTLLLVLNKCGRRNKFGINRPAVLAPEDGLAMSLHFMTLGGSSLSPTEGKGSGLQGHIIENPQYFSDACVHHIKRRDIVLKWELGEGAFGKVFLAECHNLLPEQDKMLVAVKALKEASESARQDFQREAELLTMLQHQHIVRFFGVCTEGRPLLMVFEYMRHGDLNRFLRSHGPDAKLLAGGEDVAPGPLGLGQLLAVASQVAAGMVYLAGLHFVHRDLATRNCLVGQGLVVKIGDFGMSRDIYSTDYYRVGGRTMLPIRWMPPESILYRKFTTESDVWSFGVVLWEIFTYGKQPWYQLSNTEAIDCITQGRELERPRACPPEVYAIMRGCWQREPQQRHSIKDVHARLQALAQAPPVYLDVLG
Outline: as §1

[6] = target: T6, HIPK4 (Homo sapiens, UniProt Q8NE63)
T6 construct: purchased Reaction Biology Corp
T6 sequence (Q8NE63 1-616): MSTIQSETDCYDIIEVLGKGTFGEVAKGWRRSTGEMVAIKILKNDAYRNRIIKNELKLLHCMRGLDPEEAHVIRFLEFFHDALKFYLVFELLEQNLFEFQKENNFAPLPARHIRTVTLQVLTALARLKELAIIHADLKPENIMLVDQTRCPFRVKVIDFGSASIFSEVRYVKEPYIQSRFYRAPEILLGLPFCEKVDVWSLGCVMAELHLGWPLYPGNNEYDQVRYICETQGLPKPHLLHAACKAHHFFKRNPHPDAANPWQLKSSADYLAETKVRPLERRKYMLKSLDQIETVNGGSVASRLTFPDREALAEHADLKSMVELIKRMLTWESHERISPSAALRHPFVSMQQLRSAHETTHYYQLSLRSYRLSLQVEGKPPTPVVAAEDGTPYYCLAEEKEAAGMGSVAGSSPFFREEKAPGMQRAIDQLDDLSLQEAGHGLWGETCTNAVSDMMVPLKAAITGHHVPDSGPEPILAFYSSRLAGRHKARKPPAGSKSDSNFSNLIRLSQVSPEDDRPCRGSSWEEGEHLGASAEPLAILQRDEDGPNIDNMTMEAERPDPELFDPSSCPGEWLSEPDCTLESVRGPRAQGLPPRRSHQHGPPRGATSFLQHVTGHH
Outline: as §1

[7] = target: T7, VRK1 (Homo sapiens, UniProt Q99986)
T7 construct: purchased Reaction Biology Corp
T7 sequence (Q99986 1-396): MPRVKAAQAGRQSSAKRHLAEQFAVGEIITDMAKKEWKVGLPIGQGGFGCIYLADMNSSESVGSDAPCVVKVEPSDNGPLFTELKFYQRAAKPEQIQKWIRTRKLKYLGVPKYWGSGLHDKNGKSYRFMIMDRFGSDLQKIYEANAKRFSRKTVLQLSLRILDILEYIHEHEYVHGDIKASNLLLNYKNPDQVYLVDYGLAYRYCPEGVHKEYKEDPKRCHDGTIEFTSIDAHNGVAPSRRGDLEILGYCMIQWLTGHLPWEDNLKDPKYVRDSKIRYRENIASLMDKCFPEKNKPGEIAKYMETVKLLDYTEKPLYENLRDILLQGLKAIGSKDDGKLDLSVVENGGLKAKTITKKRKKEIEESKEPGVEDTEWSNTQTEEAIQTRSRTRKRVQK
Outline: as §1

[8] = target: T8, BRSK1 (Homo sapiens, UniProt Q8TDC3)
T8 construct: purchased Reaction Biology Corp
T8 sequence (Q8TDC3 1-778): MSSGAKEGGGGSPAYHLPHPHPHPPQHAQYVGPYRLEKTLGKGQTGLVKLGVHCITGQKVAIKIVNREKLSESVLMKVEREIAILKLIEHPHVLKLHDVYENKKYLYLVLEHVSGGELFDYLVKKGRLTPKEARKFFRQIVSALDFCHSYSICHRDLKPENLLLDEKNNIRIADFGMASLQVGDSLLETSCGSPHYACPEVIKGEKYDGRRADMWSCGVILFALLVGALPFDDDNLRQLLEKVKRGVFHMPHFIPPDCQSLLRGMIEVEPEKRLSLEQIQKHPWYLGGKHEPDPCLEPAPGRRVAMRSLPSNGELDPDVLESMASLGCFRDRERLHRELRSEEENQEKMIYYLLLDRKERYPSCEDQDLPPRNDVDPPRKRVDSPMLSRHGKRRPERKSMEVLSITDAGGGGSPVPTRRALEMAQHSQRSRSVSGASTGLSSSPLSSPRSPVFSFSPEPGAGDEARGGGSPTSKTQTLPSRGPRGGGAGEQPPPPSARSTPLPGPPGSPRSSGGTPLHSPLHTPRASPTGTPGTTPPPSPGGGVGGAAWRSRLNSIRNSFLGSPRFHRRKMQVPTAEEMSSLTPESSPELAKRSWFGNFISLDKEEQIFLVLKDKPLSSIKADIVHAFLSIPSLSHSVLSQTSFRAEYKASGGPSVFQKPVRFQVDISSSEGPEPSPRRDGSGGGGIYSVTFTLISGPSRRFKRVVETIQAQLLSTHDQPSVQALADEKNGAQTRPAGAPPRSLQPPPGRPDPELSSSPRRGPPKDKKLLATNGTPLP
Outline: as §1

[9] = target: T9, HIPK2 (Homo sapiens, UniProt Q9H2X6)
T9 construct: purchased Reaction Biology Corp
T9 sequence (Q9H2X6 whole entry): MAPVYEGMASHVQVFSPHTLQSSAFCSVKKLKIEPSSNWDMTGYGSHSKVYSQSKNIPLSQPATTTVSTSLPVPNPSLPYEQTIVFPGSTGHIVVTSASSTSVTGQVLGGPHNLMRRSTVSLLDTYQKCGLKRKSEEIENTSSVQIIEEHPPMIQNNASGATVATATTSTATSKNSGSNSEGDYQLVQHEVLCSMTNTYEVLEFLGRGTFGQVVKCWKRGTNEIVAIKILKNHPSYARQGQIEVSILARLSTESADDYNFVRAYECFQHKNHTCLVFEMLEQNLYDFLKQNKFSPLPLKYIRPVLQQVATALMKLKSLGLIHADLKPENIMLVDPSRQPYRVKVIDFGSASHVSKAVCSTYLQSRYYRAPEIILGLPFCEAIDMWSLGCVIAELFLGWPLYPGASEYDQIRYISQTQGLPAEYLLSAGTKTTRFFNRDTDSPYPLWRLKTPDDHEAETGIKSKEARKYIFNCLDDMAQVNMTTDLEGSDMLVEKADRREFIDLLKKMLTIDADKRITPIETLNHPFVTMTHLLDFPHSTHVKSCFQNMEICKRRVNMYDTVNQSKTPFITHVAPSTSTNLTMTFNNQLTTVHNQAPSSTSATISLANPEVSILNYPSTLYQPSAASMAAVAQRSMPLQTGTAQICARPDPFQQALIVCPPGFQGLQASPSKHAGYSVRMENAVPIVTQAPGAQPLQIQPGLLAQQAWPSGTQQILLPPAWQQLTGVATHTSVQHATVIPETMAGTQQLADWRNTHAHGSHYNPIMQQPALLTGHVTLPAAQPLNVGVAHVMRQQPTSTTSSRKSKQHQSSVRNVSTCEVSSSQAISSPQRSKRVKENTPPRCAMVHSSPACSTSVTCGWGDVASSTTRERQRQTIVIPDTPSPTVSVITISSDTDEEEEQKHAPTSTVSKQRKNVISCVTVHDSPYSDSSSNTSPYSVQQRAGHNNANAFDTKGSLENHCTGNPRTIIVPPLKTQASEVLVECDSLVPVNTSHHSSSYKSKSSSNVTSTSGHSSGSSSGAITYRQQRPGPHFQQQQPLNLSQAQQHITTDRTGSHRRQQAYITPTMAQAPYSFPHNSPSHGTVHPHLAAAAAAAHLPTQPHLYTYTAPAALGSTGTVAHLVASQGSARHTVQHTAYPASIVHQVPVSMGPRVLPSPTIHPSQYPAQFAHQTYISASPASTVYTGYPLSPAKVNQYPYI
Outline: as §1

[10] = target: T10, MSSK1/STK23 (Homo sapiens, UniProt Q9UPE1)
T10 construct: purchased Reaction Biology Corp
T10 sequence (Q9UPE1 whole entry): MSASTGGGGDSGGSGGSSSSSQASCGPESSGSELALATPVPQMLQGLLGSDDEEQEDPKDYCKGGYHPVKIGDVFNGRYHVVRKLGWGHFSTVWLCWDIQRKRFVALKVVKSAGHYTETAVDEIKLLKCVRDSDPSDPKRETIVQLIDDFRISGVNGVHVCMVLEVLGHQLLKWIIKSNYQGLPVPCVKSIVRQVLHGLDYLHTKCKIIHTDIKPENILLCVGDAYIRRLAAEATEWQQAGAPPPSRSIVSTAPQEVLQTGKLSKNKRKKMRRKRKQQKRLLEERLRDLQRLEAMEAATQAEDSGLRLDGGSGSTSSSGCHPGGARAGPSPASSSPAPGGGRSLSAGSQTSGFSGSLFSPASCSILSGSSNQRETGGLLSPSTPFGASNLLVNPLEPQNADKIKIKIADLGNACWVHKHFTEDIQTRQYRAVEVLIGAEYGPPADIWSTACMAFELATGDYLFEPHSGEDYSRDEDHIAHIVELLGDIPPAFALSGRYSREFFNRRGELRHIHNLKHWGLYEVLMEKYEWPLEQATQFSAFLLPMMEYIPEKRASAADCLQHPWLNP
Outline: as §1

[11] = target: T11, CDK1/cyclin E (Homo sapiens, UniProt P06493)
T11 construct: purchased Reaction Biology Corp
T11 sequence (P06493 whole entry): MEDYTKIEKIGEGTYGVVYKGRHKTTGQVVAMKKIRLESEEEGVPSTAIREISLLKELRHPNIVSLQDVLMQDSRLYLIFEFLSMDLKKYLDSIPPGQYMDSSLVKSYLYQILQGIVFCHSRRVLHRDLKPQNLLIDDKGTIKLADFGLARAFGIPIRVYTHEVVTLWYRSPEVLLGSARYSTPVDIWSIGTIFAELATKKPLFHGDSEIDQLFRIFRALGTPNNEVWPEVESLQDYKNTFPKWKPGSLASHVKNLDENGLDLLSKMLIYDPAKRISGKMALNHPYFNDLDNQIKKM
T11 sequence (P24864 whole entry partner): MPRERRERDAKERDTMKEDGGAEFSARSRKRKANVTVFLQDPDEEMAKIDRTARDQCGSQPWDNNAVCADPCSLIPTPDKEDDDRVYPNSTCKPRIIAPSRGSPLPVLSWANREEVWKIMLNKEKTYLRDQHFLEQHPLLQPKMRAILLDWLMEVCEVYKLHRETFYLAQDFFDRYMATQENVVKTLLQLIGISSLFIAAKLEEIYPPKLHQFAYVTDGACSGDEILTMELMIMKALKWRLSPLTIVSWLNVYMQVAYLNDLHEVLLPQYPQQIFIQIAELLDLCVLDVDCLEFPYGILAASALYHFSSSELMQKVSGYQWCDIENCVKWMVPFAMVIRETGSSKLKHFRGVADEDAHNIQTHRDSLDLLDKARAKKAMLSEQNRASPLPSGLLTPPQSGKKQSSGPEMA
Outline: as §1

[12] = read-out: % Enzyme Activity (relative to DMSO controls) AVG
[13] = read-out: % Enzyme Activity (relative to DMSO controls) Data 1
[14] = read-out: % Enzyme Activity (relative to DMSO controls) Data 2

In the case of CC(C)(C)C(=O)N1N=CC[C@H]1c1ccccc1 [GSK′963], the remaining activity at 10 µM [1, 12] is reported as 101%, the remaining activity at 10 µM [1, 13] is reported as 101% and the remaining activity at 10 µM [1, 14] is reported as 101%. The remaining activity at 10 µM [2, 12] was 103%, the remaining activity at 10 µM [2, 13] was 102% and the remaining activity at 10 µM [2, 14] was 105%. For the same compound, the remaining activity at 10 µM [3, 12] was 75.3%, the remaining activity at 10 µM [3, 13] was 72.8% and the remaining activity at 10 µM [3, 14] was 77.7%. For the same compound, the remaining activity at 10 µM [4, 12] was 117%, the remaining activity at 10 µM [4, 13] was 111% and the remaining activity at 10 µM [4, 14] was 122%. The remaining activity at 10 µM [5, 12] was 99.8%, the remaining activity at 10 µM [5, 13] was 98.2% and the remaining activity at 10 µM [5, 14] was 101%. It also gave a remaining activity at 10 µM [6, 12] of 99.5%, a remaining activity at 10 µM [6, 13] of 96.7% and a remaining activity at 10 µM [6, 14] of 102%. It also gave a remaining activity at 10 µM [7, 12] of 78.2%, a remaining activity at 10 µM [7, 13] of 80.9% and a remaining activity at 10 µM [7, 14] of 75.4%. It also gave a remaining activity at 10 µM [8, 12] of 95.2%, a remaining activity at 10 µM [8, 13] of 96.9% and a remaining activity at 10 µM [8, 14] of 93.5%. It also gave a remaining activity at 10 µM [9, 12] of 103%, a remaining activity at 10 µM [9, 13] of 101% and a remaining activity at 10 µM [9, 14] of 104%. It also gave a remaining activity at 10 µM [10, 12] of 107%, a remaining activity at 10 µM [10, 13] of 108% and a remaining activity at 10 µM [10, 14] of 105%. For the same compound, the remaining activity at 10 µM [11, 12] was 98.2%, the remaining activity at 10 µM [11, 13] was 102% and the remaining activity at 10 µM [11, 14] was 94.7%.
